Test results from patent US20260272944A1, “PYRIDO[3,4-D]PYRIMIDINONE AND PYRIMDLLNE ARYL HYDROCARBON RECEPTOR ANTAGONISTS AND USES THEREOF” (ALLIANTHERA (SUZHOU) BIOPHARMACEUTICAL CO., LTD., priority 2023, published 2026).

biological target: T1, Human Aryl Hydrocarbon Receptor (AhR) (Homo sapiens, UniProt P35869); assay: AhR reporter assay (Human Aryl Hydrocarbon Receptor (AhR) Reporter Assay System, INDIGO Bioscience); type: cell-based; settings: AHR inhibition at 10 nM test compound; AhR Reporter Cells activated with 200 μM kynurenic acid, 24 hours; firefly luciferase; normalized by positive and negative controls
T1 construct: purchased INDIGO Bioscience IB06001-32; host or cells: AhR Reporter Cell (the kit's proprietary reporter cells)
T1 sequence (P35869 11-848): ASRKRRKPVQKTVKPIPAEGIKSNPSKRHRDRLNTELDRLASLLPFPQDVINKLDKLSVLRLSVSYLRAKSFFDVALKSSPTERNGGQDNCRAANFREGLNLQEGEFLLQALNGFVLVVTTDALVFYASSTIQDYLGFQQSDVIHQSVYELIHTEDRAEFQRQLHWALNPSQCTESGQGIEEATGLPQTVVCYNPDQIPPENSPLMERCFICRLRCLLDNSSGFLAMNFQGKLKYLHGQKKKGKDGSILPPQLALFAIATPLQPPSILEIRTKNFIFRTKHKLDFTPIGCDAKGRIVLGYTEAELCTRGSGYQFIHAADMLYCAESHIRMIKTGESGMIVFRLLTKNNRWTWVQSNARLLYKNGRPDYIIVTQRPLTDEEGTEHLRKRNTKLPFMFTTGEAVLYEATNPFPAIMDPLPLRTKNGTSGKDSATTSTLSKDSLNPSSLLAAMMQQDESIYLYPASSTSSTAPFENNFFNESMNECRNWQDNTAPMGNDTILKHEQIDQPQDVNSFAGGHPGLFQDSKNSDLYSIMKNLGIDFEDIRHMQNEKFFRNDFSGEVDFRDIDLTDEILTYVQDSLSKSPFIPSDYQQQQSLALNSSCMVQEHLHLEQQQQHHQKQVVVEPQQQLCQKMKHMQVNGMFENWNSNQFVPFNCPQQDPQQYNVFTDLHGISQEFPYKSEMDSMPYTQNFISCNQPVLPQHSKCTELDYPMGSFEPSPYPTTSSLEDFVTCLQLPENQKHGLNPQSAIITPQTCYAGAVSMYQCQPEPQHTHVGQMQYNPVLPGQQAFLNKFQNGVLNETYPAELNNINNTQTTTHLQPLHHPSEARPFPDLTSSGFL
Method: The AhR reporter assay was performed following the protocol of the Human Aryl Hydrocarbon Receptor (AhR) Reporter Assay System (INDIGO Bioscience, #IB06001-32). AhR Reporter Cell was thawed and pre-incubated in Cell Recovery Medium (CRM) for 6 hours. The media was then removed and the cells were incubated with Compound Screening Medium (CSM) supplemented with 200 μM kynurenic acid for 24 hours in the absence (negative control) or presence of 10 nM test compounds. For positive inhibition control, cells activated with 200 μM kynurenic acid were incubated in the presence of literature AHR antagonists; alternatively un-activated cells were used as positive inhibition control. Following 24 hours incubation, the media was removed and Luciferase Detection Reagent (LDR) added. The firefly luciferase activity was quantified using a plate reader. Results were normalized by positive and negative controls.
The results of AHR inhibition at 10 nM for compounds as disclosed herein is reported in the below table.

| SMILES | inhibition at 0.01 µM [%] |
| --- | --- |
| C[C@@H](CO)n1cnc2c(-c3cnn(C)c3)nc(-c3ccc(C(=O)N4CCC(N)C4)cc3)cc2c1=O (stereo partly shown) [Compound 34] | 6 |
| C[C@@H](CO)n1cnc2c(-c3cnn(C)c3)nc(-c3ccc(-c4cncc(F)c4)nc3)cc2c1=O [Compound 41] | 39 |
| C[C@@H](CO)n1cnc2c(-c3cnn(C)c3)nc(-c3ccc(-c4cccc(F)c4)nc3)cc2c1=O [Compound 12] | 72 |
| Cc1cc(-c2cc(C(=O)N[C@@H](C)CO)nc(-c3cnn(C)c3)n2)ccc1N1CCOCC1 [Compound 96] | 10 |
| C[C@@H](CO)NC(=O)c1cc(N2CC3CCC(C2)N3c2ccc(F)cc2)nc(-c2cnn(C)c2)n1 [Compound 74] | 13 |
| C[C@@H](CO)n1cnc2c(-c3cnn(C)c3)nc(-c3ccc(C(=O)N4CCOCC4)cc3)cc2c1=O [Compound 21] | -0.3 |
| C[C@@H](CO)NC(=O)c1cc(-c2ccc(-c3ccc(F)nc3)nc2)nc(-c2cnn(C)c2)n1 [Compound 69] | 60 |
| C[C@@H](CNS(=O)(=O)C1CC1)NC(=O)c1cc(N2Cc3ccccc3C2)nc(-c2cnn(C)c2)n1 [Compound 127] | 52 |
| C[C@@H](CO)NC(=O)c1cc(N2CCN(c3ccc(F)cc3)[C@@H](C)C2)nc(-c2cnn(C)c2)n1 [Compound 72] | 13 |
| C[C@@H](CO)n1cnc2c(-c3cnn(C)c3)nc(-c3ccc(N4CC5CCC(C4)O5)cc3)cc2c1=O [Compound 4] | 53 |
| C[C@@H](CO)NC(=O)c1cc(N2CCN(c3ccc(F)cc3)C[C@@H]2C)nc(-c2cnn(C)c2)n1 [Compound 77] | 4 |
| C[C@@H](CO)n1cnc2c(-c3cnn(C)c3)nc(N3CCN(c4ncccn4)CC3)cc2c1=O [Compound 121] | 4 |
| Cc1nn(C)c2cc(-c3cc4c(=O)n([C@@H](C)CO)cnc4c(-c4cnn(C)c4)n3)ccc12 [Compound 10] | 28 |
| C[C@@H](CO)n1cnc2c(-c3cnn(C)c3)nc(N3CC4CCC(C3)N4c3ccc(F)cc3)cc2c1=O [Compound 17] | 35 |
| C[C@@H](CO)n1cnc2c(-c3cnn(C)c3)nc(-c3ccc(C(=O)N4CCN(S(C)(=O)=O)CC4)cc3)cc2c1=O [Compound 120] | -10 |
| C[C@@H](CO)n1cnc2c(-c3cnn(C)c3)nc(N3Cc4cccc(F)c4C3)cc2c1=O [Compound 52] | 35 |
| C[C@@H](CO)n1cnc2c(-c3cnn(C)c3)nc(-c3ccc(N4CCOCC4)cc3)cc2c1=O [Compound 3] | 66 |

| SMILES | inhibition at 0.01 µM [%] |
| --- | --- |
| C[C@@H](CO)n1cnc2c(-c3cnn(C)c3)nc(-c3ccc(C(=O)N4CCC(N)CC4)cc3)cc2c1=O [Compound 30] | -5 |
| C[C@@H](CO)NC(=O)c1cc(-c2ccc(-c3ccc(F)cc3)nc2)nc(-c2cnn(C)c2)n1 [Compound 61] | 62 |
| C[C@@H](CO)NC(=O)c1cc(N2CCN(C(=O)c3ccc(F)cc3)CC2)nc(-c2cnn(C)c2)n1 [Compound 75] | 24 |
| C[C@@H](CO)NC(=O)c1cc(N2CCN(c3ccc(F)cc3)CC2)nc(-c2cnn(C(F)(F)F)c2)n1 [Compound 65] | 7 |
| C[C@H](CO)NC(=O)c1cc(N2Cc3ccccc3C2)nc(-c2cnn(C)c2)n1 [Compound 125] | 23 |
| C[C@@H](CO)n1cnc2c(-c3cnn(C)c3)nc(-c3ccc(-c4ccc(Cl)cc4)nc3)cc2c1=O [Compound 7] | 90 |
| C[C@@H](CO)NC(=O)c1cc(-c2ccc(-c3ccccc3F)nc2)nc(-c2cnn(C)c2)n1 [Compound 59] | 24 |
| C[C@@H](CO)n1cnc2c(-c3cnn(C)c3)nc(N3CCN(c4ccc(F)cc4)CC3)cc2c1=O [Compound 14] | 85 |
| C[C@@H]1CN(c2ccc(F)cc2)CCN1c1cc(C(=O)N[C@@H](C)CO)nc(-c2cnn(C)c2)n1 [Compound 76] | 1 |
| C[C@@H](CO)NC(=O)c1cc(-c2ccc(N3CCOCC3)nc2)nc(-c2cnn(C)c2)n1 [Compound 90] | 1 |
| C[C@@H](CO)n1cnc2c(-c3cnn(C)c3)nc(-c3ccc(N4CCOCC4)nc3)cc2c1=O [Compound 25] | 8 |
| C[C@@H](CO)NC(=O)c1cc(-c2ccc(C(=O)N3CCC(N)C3)cc2)nc(-c2cnn(C)c2)n1 (stereo partly shown) [Compound 105] | -3 |
| C[C@@H](CO)n1cnc2c(-c3cnn(C)c3)nc(-c3ccc(-c4ccc(F)cc4)nc3)cc2c1=O [Compound 6] | 96 |
| C[C@@H](CO)n1cnc2c(-c3cnn(C)c3)nc(-c3ccc(-c4ccc(F)nc4)nc3)cc2c1=O [Compound 8] | 83 |
| C[C@@H](CO)n1cnc2c(-c3cnn(C)c3)nc(-c3ccc(NC(=O)CN4CCOCC4)cc3)cc2c1=O [Compound 42] | 16 |
| C[C@@H](CO)n1cnc2c(-c3cnn(C)c3)nc(-c3ccc(N4CCCCC4)cc3)cc2c1=O [Compound 13] | 64 |

Second part, the compound after the results:

| inhibition at 0.01 µM [%] | SMILES |
| --- | --- |
| 29 | C[C@@H](CO)n1cnc2c(-c3cnn(C)c3)nc(-c3ccc(C4=CCOCC4)nc3)cc2c1=O [Compound 9] |
| 69 | C[C@@H](CO)NC(=O)c1cc(N2CCN(c3ccc(F)cc3)CC2)nc(-c2cccc(F)c2)n1 [Compound 66] |
| 58 | C[C@@H](CO)NC(=O)c1cc(N2Cc3ccccc3C2)nc(-c2cnn(C)c2)n1 [Compound 63] |
| 2 | C[C@@H](CO)n1cnc2c(-c3cnn(C)c3)nc(-c3ccc(-c4cnc(N)nc4)nc3)cc2c1=O [Compound 119] |
| 21 | C[C@@H](CO)NC(=O)c1cc(N2Cc3cccc(F)c3C2)nc(-c2cnn(C)c2)n1 [Compound 88] |
| 44 | C[C@@H](CO)n1cnc2c(-c3cnn(C)c3)nc(-c3ccc(-c4ccc(=O)n(C)c4)cc3)cc2c1=O [Compound 44] |
| 7 | C[C@@H](CO)n1cnc2c(-n3cncc3C3CC3)nc(-c3cncc(F)c3)cc2c1=O [Compound 129] |
| 23 | C[C@@H]1CN(c2cc(C(=O)N[C@@H](C)CO)nc(-c3cnn(C)c3)n2)CCN1c1ccc(F)cc1 [Compound 73] |
| 99 | C[C@@H](CO)n1cnc2c(-c3cnn(C)c3)nc(N3Cc4ccc(F)cc4C3)cc2c1=O [Compound 56] |
| 1 | Cc1cc(N2CCOCC2)ccc1-c1cc2c(=O)n([C@@H](C)CO)cnc2c(-c2cnn(C)c2)n1 [Compound 54] |
| 49 | C[C@@H](CO)NC(=O)c1cc(N2Cc3ccccc3C2=O)nc(-c2cnn(C)c2)n1 [Compound 64] |
| 56 | C[C@@H](CO)n1cnc2c(-c3cnn(C)c3)nc(-c3ccc(-c4ccccc4F)nc3)cc2c1=O [Compound 1] |
| 8 | C[C@@H](CO)n1cnc2c(-c3cnn(C)c3)nc(-c3ccc(C(=O)N4CCC(O)C4)cc3)cc2c1=O (stereo partly shown) [Compound 29] |
| 77 | C[C@@H](CO)n1cnc2c(-c3cnn(C)c3)nc(N3Cc4cccnc4C3)cc2c1=O [Compound 124] |
| 99 | C[C@@H](CO)n1cnc2c(-c3cnn(C)c3)nc(N3Cc4ccccc4C3)cc2c1=O [Compound 15] |
| -4 | C[C@@H](CO)n1cnc2c(-c3cnn(C)c3)nc(-c3ccc(NC(=O)CN4CCOCC4)nc3)cc2c1=O [Compound 39] |
| 87 | C[C@@H](CO)NC(=O)c1cc(-c2ccc(-c3ccc(Cl)cc3)nc2)nc(-c2cnn(C)c2)n1 [Compound 70] |
| 3 | C[C@@H](CO)n1cnc2c(-c3cnn(C)c3)nc(-c3ccc(C4CCOCC4)nc3)cc2c1=O [Compound 11] |
| 4 | C[C@@H](CO)n1cnc2c(-n3nc(N)ccc3=O)nc(-c3cncc(F)c3)cc2c1=O [Compound 128] |
| -5 | C[C@@H](CO)n1cnc2c(-c3cnn(C)c3)nc(-c3ccc(C(=O)N4CCCNCC4)cc3)cc2c1=O [Compound 28] |
| 5 | C[C@@H](CO)NC(=O)c1cc(-c2ccc(NC(=O)CN3CCOCC3)cc2)nc(-c2cnn(C)c2)n1 [Compound 98] |
| 51 | C[C@@H](CO)n1cnc2c(-c3cnn(C)c3)nc(/C=C/c3ccccc3)cc2c1=O [Compound 2] |
